# According to patent US7198946B2, “Screening for agents effective in decreasing abnormal macrophages associated with amyotrophic lateral sclerosis” (Pathologica, LLC, priority 2001, dated 2007):
# Tested on: CD14+ circulating monocytes from ALS patients
# Experiment: Effect of polyamine analogs on CD14+ monocytes in cultured PBMCs, anti-CD14 flow cytometry
# Format: cell-based, human
# Details: 1.0 μM SL-11047, 6 days incubation; 6 ALS patients vs 1 normal subject and 1 MS patient (FIG. 5)
# Description: Peripheral blood mononuclear cells (PBMCs) are isolated from heparin-treated whole blood by layering over Percoll, density 1.087, (Pharmacia, Piscataway, N.J.) and followed by centrifugation at 800×g. The cells that collect at the Percoll/plasma interface are harvested and washed with 0.01 M phosphate-buffered saline (PBS). Isolated cells are then suspended in RPMI 1640 culture medium, with 10% fetal bovine serum, at a concentration of about 1×10^6 cells/ml. Cells are allocated to polyvinyl culture tubes at 1 ml/tube. A polyamine analog such as SL-11047 is added to 3 tubes, to achieve final concentrations of 1.0, 0.1, and 0.01 micromolar. A fourth tube, for control, receives no (zero) drug. […]
# On the […] of incubation, cells are removed from the incubator, washed with PBS and resuspended in PBS at 0.1 ml/tube. Detection of monocytes is detected by addition of fluorescein-conjugated anti-CD14 (DAKO Corp., Carpenteria, Calif.), for 20 minutes, at room temperature, protected from light. […]
# An experiment as described above was performed with CD14+ circulating monocytes from 6 ALS patients, 1 multiple sclerosis (MS) patient and 1 normal (non-ALS) control subject. In this experiment, the cells from a patient were incubated with or without polyamine analog SL-11047 for 6 days and survival of CD14+ cells was determined. […]
compound,measurement,value
"CCNCCCNC/C=C\CNCCCNCC.Cl.Cl.Cl.Cl [SL-11047, N,N′-bis(3-ethylaminopropyl)-cis-but-2-ene-1,4-diamine tetrahydrochloride]",susceptibility to killing (percentage of CD14+ cells killed),substantially more susceptible to killing
